Results: PubChem BioAssay (NCI)
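96-well plates; 48 h exposure; 5 concentrations. Endpoints by linear interpolation between flanking doses. Not reached: highest tested concentration assigned. Abbreviation: GI50, concentration required for 50% inhibition of growth. TGI: concentration producing complete growth inhibition.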

Columns and labels:
Assay in all cases: inhibition of tumour cell growth, NCI panel, 48 h
DU-145 prostate = tested on: DU-145 prostate
CCRF-CEM leukemia = tested on: CCRF-CEM leukemia
HOP-92 NSCLC = tested on: HOP-92 NSCLC
IGROV1 ovarian = tested on: IGROV1 ovarian
MDA-MB-231 breast = tested on: MDA-MB-231 breast
KM12 colon = tested on: KM12 colon
NCI-H23 lung = tested on: NCI-H23 lung
PC-3 prostate = tested on: PC-3 prostate
NCI-H226 lung = tested on: NCI-H226 lung
A498 renal = tested on: A498 renal
OVCAR-3 ovarian = tested on: OVCAR-3 ovarian
786-0 renal = tested on: 786-0 renal
M14 melanoma = tested on: M14 melanoma
LOX IMVI melanoma = tested on: LOX IMVI melanoma
SK-MEL-5 melanoma = tested on: SK-MEL-5 melanoma
SF-268 CNS = tested on: SF-268 CNS
MOLT-4 leukemia = tested on: MOLT-4 leukemia
T-47D breast = tested on: T-47D breast
MCF7 breast = tested on: MCF7 breast
MDA-MB-435 = tested on: MDA-MB-435
SF-295 CNS = tested on: SF-295 CNS
SW-620 colon = tested on: SW-620 colon
SNB-75 CNS = tested on: SNB-75 CNS
SF-539 CNS = tested on: SF-539 CNS
UACC-257 melanoma = tested on: UACC-257 melanoma
SK-OV-3 ovarian = tested on: SK-OV-3 ovarian
HCT-116 colon = tested on: HCT-116 colon
CAKI-1 renal = tested on: CAKI-1 renal
RPMI-8226 leukemia = tested on: RPMI-8226 leukemia
RXF 393 renal = tested on: RXF 393 renal
MALME-3M melanoma = tested on: MALME-3M melanoma
OVCAR-8 ovarian = tested on: OVCAR-8 ovarian
ACHN renal = tested on: ACHN renal
NCI-H522 lung = tested on: NCI-H522 lung
MDA-MB-468 breast = tested on: MDA-MB-468 breast
OVCAR-5 ovarian = tested on: OVCAR-5 ovarian
HCC-2998 colon = tested on: HCC-2998 colon
UACC-62 melanoma = tested on: UACC-62 melanoma
OVCAR-4 ovarian = tested on: OVCAR-4 ovarian
COLO 205 colon = tested on: COLO 205 colon
SN12C renal = tested on: SN12C renal
SK-MEL-28 melanoma = tested on: SK-MEL-28 melanoma
SK-MEL-2 melanoma = tested on: SK-MEL-2 melanoma
U251 CNS = tested on: U251 CNS
BT-549 breast = tested on: BT-549 breast
HL-60(TB) leukemia = tested on: HL-60(TB) leukemia
SNB-19 CNS = tested on: SNB-19 CNS
HT29 colon = tested on: HT29 colon
HOP-62 NSCLC = tested on: HOP-62 NSCLC
UO-31 renal = tested on: UO-31 renal
EKVX NSCLC = tested on: EKVX NSCLC
NCI-H460 lung = tested on: NCI-H460 lung
HS 578T breast = tested on: HS 578T breast
SR leukemia = tested on: SR leukemia
TK-10 renal = tested on: TK-10 renal
A549 NSCLC = tested on: A549 NSCLC
K-562 leukemia = tested on: K-562 leukemia
HCT-15 colon = tested on: HCT-15 colon

## O=C(c1ccc(O)cc1)C1[C@H](c2ccc(Br)cc2)[C@@H](c2ccccc2)NC12C(=O)Nc1ccc(Br)cc12 (stereo partly specified)
DU-145 prostate
  GI50: 5.23 µM
  TGI: 10 µM
CCRF-CEM leukemia
  GI50: 5.09 µM
  TGI: 11.6 µM
HOP-92 NSCLC
  GI50: 4.39 µM
  TGI: 9.26 µM
IGROV1 ovarian
  GI50: 3.88 µM
  TGI: 8.19 µM
MDA-MB-231 breast
  GI50: 4.25 µM
  TGI: 8.61 µM
KM12 colon
  GI50: 4.5 µM
  TGI: 10.1 µM
NCI-H23 lung
  GI50: 4.9 µM
  TGI: 9.81 µM
PC-3 prostate
  GI50: 4.14 µM
  TGI: 9.22 µM
NCI-H226 lung
  GI50: 4.39 µM
  TGI: 9.76 µM
A498 renal
  GI50: 4.24 µM
  TGI: 8.7 µM
OVCAR-3 ovarian
  GI50: 5.21 µM
  TGI: 10.1 µM
786-0 renal
  GI50: 5.22 µM
  TGI: 9.86 µM
M14 melanoma
  GI50: 4.52 µM
  TGI: 9.24 µM
LOX IMVI melanoma
  GI50: 4.36 µM
  TGI: 9.1 µM
SK-MEL-5 melanoma
  GI50: 5.63 µM
  TGI: 10.4 µM
SF-268 CNS
  GI50: 4.56 µM
  TGI: 10.2 µM
MOLT-4 leukemia
  GI50: 3.39 µM
  TGI: 9.62 µM
T-47D breast
  GI50: 3.93 µM
  TGI: 8.58 µM
MCF7 breast
  GI50: 3.89 µM
  TGI: 9.13 µM
MDA-MB-435
  GI50: 5.81 µM
  TGI: 11.1 µM
SF-295 CNS
  GI50: 4.23 µM
  TGI: 8.81 µM
SW-620 colon
  GI50: 5.08 µM
  TGI: 10.2 µM
SNB-75 CNS
  GI50: 2.12 µM
  TGI: 7.06 µM
SF-539 CNS
  GI50: 5.34 µM
  TGI: 10 µM
UACC-257 melanoma
  GI50: 4.93 µM
  TGI: 9.52 µM
SK-OV-3 ovarian
  GI50: 4.51 µM
  TGI: 9.21 µM
HCT-116 colon
  GI50: 4.16 µM
  TGI: 8.63 µM
CAKI-1 renal
  GI50: 2.28 µM
  TGI: 7.08 µM
RPMI-8226 leukemia
  GI50: 5.97 µM
  TGI: 19 µM
RXF 393 renal
  GI50: 3.54 µM
  TGI: 8.33 µM
MALME-3M melanoma
  GI50: 4.96 µM
  TGI: 9.61 µM
OVCAR-8 ovarian
  GI50: 5.06 µM
  TGI: 9.8 µM
ACHN renal
  GI50: 4.03 µM
  TGI: 8.21 µM
NCI-H522 lung
  GI50: 4.45 µM
  TGI: 9.15 µM
MDA-MB-468 breast
  GI50: 4.58 µM
  TGI: 9.97 µM
OVCAR-5 ovarian
  GI50: 4.83 µM
  TGI: 9.34 µM
HCC-2998 colon
  GI50: 4.19 µM
  TGI: 8.86 µM
UACC-62 melanoma
  GI50: 4.22 µM
  TGI: 8.54 µM
OVCAR-4 ovarian
  GI50: 4.82 µM
  TGI: 9.63 µM
COLO 205 colon
  GI50: 4.57 µM
  TGI: 9.99 µM
SN12C renal
  GI50: 4.53 µM
  TGI: 8.99 µM
SK-MEL-28 melanoma
  GI50: 5.3 µM
  TGI: 9.96 µM
SK-MEL-2 melanoma
  GI50: 4.95 µM
  TGI: 9.48 µM
U251 CNS
  GI50: 4.96 µM
  TGI: 9.62 µM
BT-549 breast
  GI50: 5.54 µM
  TGI: 10.4 µM
HL-60(TB) leukemia
  GI50: 7.39 µM
  TGI: 16.7 µM
SNB-19 CNS
  GI50: 5.11 µM
  TGI: 9.75 µM
HT29 colon
  GI50: 4.48 µM
  TGI: 9.48 µM
HOP-62 NSCLC
  GI50: 4.81 µM
  TGI: 9.7 µM
UO-31 renal
  GI50: 2.66 µM
  TGI: 7.08 µM
EKVX NSCLC
  GI50: 4.19 µM
  TGI: 9.07 µM
NCI-H460 lung
  GI50: 4.29 µM
  TGI: 8.92 µM
HS 578T breast
  GI50: 4.95 µM
  TGI: 12.9 µM
SR leukemia
  GI50: 3.79 µM
  TGI: 9.3 µM
TK-10 renal
  GI50: 4.44 µM
  TGI: 8.86 µM
A549 NSCLC
  GI50: 3.59 µM
  TGI: 8.38 µM
K-562 leukemia
  GI50: 4.72 µM
  TGI: 11.8 µM
HCT-15 colon
  GI50: 4.16 µM
  TGI: 9.35 µM
